For orientation: EC50 means the concentration that produces a half-maximal response. One may read the inhibition as the change of the read-out against control, counted positive when it falls. What is called IC50 is the concentration at which inhibition is half-maximal.

Data on eight compounds can be found in patent US20230147257A1 (DONG-A ST CO., LTD., priority 2020, published 2023).

Format in all cases: cell-based
Assay [1] concerns the target T1, AhR (Homo sapiens, UniProt P35869).
T1 construct: host or cells: HepG2
T1 sequence (P35869 11-848): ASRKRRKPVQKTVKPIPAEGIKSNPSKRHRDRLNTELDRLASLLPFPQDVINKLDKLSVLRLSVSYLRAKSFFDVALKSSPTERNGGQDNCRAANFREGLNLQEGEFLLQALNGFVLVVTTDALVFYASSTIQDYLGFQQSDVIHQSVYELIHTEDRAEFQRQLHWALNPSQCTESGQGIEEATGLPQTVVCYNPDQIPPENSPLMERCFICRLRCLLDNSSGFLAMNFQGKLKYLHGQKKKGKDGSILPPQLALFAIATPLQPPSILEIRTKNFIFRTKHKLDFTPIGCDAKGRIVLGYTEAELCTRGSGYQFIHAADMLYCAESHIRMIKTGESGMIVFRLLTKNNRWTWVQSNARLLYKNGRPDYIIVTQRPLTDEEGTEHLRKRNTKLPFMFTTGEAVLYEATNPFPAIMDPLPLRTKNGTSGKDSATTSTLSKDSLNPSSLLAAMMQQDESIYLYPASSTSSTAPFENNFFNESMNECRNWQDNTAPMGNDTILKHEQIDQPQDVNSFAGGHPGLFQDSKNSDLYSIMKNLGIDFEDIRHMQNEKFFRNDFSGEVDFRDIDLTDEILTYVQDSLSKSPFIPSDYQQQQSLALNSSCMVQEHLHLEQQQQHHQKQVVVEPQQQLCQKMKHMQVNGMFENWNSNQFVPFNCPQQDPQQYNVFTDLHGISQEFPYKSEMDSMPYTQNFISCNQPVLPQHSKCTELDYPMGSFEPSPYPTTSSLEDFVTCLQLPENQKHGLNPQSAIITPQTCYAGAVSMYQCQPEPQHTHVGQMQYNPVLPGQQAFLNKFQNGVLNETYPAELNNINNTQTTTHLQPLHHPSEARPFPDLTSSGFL
The assay is described as follows: In vitro assay 3: XRE-luciferase reporter assay, agonism in human cell line (HepG2). The conditions noted are these: HepG2 XRE-Luc, tryptophan free medium, test compound alone, 6 hours. From the text:
(§1) In Vitro XRE-Luciferase Reporter Assay (In Vitro Assay 1, 2, 3)
(§2) AhR activation leads the induction of target gene expression such as CYP1A1 and CYP1B1 by AhR binding to AhR-responsive DNA elements also known as xenobiotics responsive elements (XRE). The assay for measuring AhR activity herein is the luciferase assay using cell lines transfected with luciferase reporter plasmid containing XREs at the upstream of the reporter gene. Cells transfected with XRE-luciferase reporter (XRE-Luc) plasmid drive luciferase activity reflecting activation and inhibition of AhR in the cells. In addition to transfection with XRE-reporter vector, cells were co-transfected with Nano-luciferase reporter gene construct (Nano-Luc) containing constitutively active promoter as internal control. Kynurenine (an endogenous AhR agonist) was used to stimulate cells to test antagonistic properties of the compounds. The half-maximal inhibitory concentration (IC50) or half-maximal effective concentration (EC50) value was calculated using nonlinear regression (four parameters) with Prism8.0 software (GraphPad).
In Vitro Assay 3: Agonism in Human Cell Line
HepG2 (human hepatoma cell line) cells co-transfected with XRE-Luc and Nano-Luc plasmids were plated in tryptophan free medium containing 1% of dialyzed fetal bovine serum and incubated overnight at 37° C. in a CO2 incubator. After 24 hours, cells were treated for 6 hours with test compounds or not. Firefly luciferase and Nano-luciferase activity was measured using Nano-glo Luciferase kit (Promega) and relative luciferase activity (Firefly/Nano-Luc) was used to calculate EC50 values. As a positive control, cells were incubated with TCDD. (EC50 Values are grouped as A, B, C and D, whereby A: EC50<0.1 μM; B: 0.1<EC50<1.0 μM; C: 1.0<EC50<10 μM; D: EC50>10 μM)

The target in assay [2] is T1, AhR. The assay is described as follows: In vitro assay 4: endogenous AhR activity assay (CYP1A1 and CYP1B1 mRNA, qRT-PCR, HepG2 cells). The conditions noted are these: TCDD 10 nM with compound 123 nM, 4 hours, mRNA relative to β-actin. How it is done:
In Vitro Assay 4: Endogenous AhR Activity Assay
HepG2 cells were seeded in 12-well plate (3×10^5 cells/well). A day after seeding, the cells were treated with TCDD (10 nM) alone or with compounds (123 nM) for 4 hours. Total RNA was extracted using Trizol (Thermo Fisher Scientific). cDNA synthesis and quantitative RT-PCR (qRT-PCR) assays were performed using PrimeScript™ RT Master Mix (TAKARA) and TB Green™ Premix Ex Taq™ II (TAKARA) in accordance with manufacturer's instruction. For the measurement of endogenous AhR activity, relative mRNA levels of CYP1A1 and CYP1B1 were quantitated relative to β(beta)-actin mRNA by the comparative Ct (ΔΔCt) method. The percent inhibitions were calculated according to: […]
In general terms: Real-time PCR tracks product formation cycle by cycle.

The target of assay [3] is T1, AhR. The experiment in a line: In vitro assay 1: XRE-luciferase reporter assay, antagonism in human cell line (HepG2). The conditions noted are these: HepG2 XRE-luciferase, 6 hours, read-out: Assay 1: AhR-Luc Human Antagonism (IC50). In a few lines:
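HepG2 cells carrying XRE-firefly luciferase (transient or stable) plus constitutive Nano-Luc control, stimulated 6 h with kynurenine (50 or 200 μM) with or without compound. Firefly/Nano-Luc ratio normalized to kynurenine-alone (maximum) and vehicle (minimum); IC50 by four-parameter nonlinear regression.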
For orientation: Reporter assays use an easily measured gene product as a stand-in for the process of interest.

Assay [4] concerns the target T2, AhR (Mus musculus, UniProt P30561).
T2 sequence (P30561 1-848): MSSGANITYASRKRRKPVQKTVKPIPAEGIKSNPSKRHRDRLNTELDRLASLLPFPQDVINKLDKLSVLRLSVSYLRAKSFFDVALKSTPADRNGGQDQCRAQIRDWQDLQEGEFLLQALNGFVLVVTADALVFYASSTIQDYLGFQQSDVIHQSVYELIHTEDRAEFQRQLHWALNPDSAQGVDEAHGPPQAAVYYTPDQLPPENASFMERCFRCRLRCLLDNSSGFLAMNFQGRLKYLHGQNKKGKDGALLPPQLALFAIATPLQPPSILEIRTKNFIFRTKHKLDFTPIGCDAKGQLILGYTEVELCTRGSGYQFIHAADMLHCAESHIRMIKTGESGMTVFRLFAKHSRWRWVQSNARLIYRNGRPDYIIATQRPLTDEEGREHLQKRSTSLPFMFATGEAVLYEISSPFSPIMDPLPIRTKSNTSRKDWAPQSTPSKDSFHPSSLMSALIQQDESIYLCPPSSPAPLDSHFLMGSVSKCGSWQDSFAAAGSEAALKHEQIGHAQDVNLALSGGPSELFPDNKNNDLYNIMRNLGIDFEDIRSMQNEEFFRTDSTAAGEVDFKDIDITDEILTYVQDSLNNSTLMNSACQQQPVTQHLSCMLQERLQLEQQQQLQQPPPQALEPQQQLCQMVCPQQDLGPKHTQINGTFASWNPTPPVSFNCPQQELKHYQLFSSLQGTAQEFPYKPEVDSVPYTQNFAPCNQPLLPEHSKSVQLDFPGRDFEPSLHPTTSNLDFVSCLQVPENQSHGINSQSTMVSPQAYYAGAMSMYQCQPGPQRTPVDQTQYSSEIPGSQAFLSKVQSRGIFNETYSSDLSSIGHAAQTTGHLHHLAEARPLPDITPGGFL
The assay is described as follows: In vitro assay 2: XRE-luciferase reporter assay, antagonism in mouse cell line (Hepa1c1c7). As to conditions: Hepa1c1c7 XRE-Luc, 6 hours.
Text: as §1, §2
In Vitro Assay 2: Antagonism in Mouse Cell Line
Hepa1c1c7 (murine liver cancer cell line) cells co-transfected with XRE-Luc and Nano-Luc plasmids were plated in complete medium and incubated overnight at 37° C. in a CO2 incubator. Following incubation, cells were treated with AhR activating ligands such as kynurenic acid, kynurenine(#) with or without test compounds for 6 hours. Firefly luciferase and Nano-luciferase activity was measured using Nano-glo Luciferase kit (Promega) and relative luciferase activity (Firefly/Nano-Luc) was used to calculate IC50 values. The relative luciferase activity was further normalized with agonists alone group as the maximum control and the vehicle group as the minimum control. (IC50 Values are grouped as A, B, C and D, whereby A: IC50<0.01 μM; B: 0.01<IC50<0.1 μM; C: 0.1<IC50<1.0 μM; D: IC50>1.0 μM)

[5] abbreviates: read-out: Assay 3: AhR-Luc Human Agonism (EC50).
Where [6] appears, read: read-out: CYP1A1 (% Inhibition).
Setting [7] is: cells treated with kynurenine 50 μM (*).
The mark [8] stands for this setting: read-out: Assay 3: AhR-Luc Human Agonism (EC50, nM), class in brackets.
The mark [9] stands for this setting: AhR activating ligand such as kynurenic acid (no #).
Setting [10] is: cells treated with kynurenine 200 μM (no *).
Where [11] appears, read: cells treated with kynurenine (#).

Read-outs that look alike come from different tables or passages of the source.

Consider `CC(CO)n1cnc2c(-c3cnn(C)c3)nc(-c3ccc(C(F)(F)F)cc3)cc2c1=O` (stereo not drawn) [Example 45, 3-(1-hydroxypropan-2-yl)-8-(1-methyl-1H-pyrazol-4-yl)-6-(4-(trifluoromethyl)phenyl)pyrido[3,4-d]pyrimidin-4(3H)-one], for which, on AhR [1] (setting [5]), the EC50 amounted to 0.0428 nM. In addition, the inhibition at 0.123 µM worked out at 99.6% at AhR [2] (setting [6]) and 100% at AhR [2] (read-out: CYP1B1 (% Inhibition)). The half-maximal inhibitory concentration (IC50) at AhR [3] (setting [7]) was under 10 nM.
`CC(=O)N1CCC(n2cnc3c(-c4cccnc4)nc(-c4ccc(Cl)cc4)cc3c2=O)CC1` [Example 96, 3-(1-acetylpiperidin-4-yl)-6-(4-chlorophenyl)-8-(pyridin-3-yl)pyrido[3,4-d]pyrimidin-4(3H)-one]: the 50% effective concentration (EC50) at AhR [1] (setting [5]) was over 30000 nM; at AhR [1] (setting [8]) it was over 10000 nM. In addition, the inhibition at 0.123 µM at AhR [2] (setting [6]) amounted to 99.9%. Besides, the IC50 against AhR [4] (setting [9]) and at AhR [3] (setting [10]) was under 10 nM throughout.
For the compound `CC(=O)NCC(C)n1cnc2c(-c3cccnc3)nc(-c3ccc(Cl)cc3)cc2c1=O` (stereo not drawn) [Example 88, N-(2-(6-(4-chlorophenyl)-4-oxo-8-(pyridin-3-yl)pyrido[3,4-d]pyrimidin-3(4H)-yl)propyl)acetamide], the concentration for a half-maximal effect (EC50) is over 30000 nM at AhR [1] (setting [5]) and over 10000 nM at AhR [1] (setting [8]). Moreover, the inhibition at 0.123 µM on AhR [2] (setting [6]) is 99.2%. Besides, the IC50 at AhR [4] (setting [11]) was 10 to 100 nM; on AhR [3] (setting [10]), under 10 nM.
As for `O=c1c2cc(-c3ccc(C(F)(F)F)cc3)nc(-c3cccnc3)c2ncn1CC(O)CO` (stereo not drawn) [Example 66, 3-(2,3-dihydroxypropyl)-8-(pyridin-3-yl)-6-(4-(trifluoromethyl)phenyl)pyrido[3,4-d]pyrimidin-4(3H)-one], the inhibition at 0.123 µM at AhR [2] (setting [6]) was found to be 100%. For the same compound, the IC50 against AhR [4] (setting [11]) is 10 to 100 nM; at AhR [3] (setting [10]), under 10 nM.
In the case of `CCC(CO)n1cnc2c(-c3cccnc3)nc(-c3ccc(Cl)cc3)cc2c1=O` (stereo not drawn) [Example 51, 6-(4-chlorophenyl)-3-(1-hydroxybutan-2-yl)-8-(pyridin-3-yl)pyrido[3,4-d]pyrimidin-4(3H)-one], at AhR [1] (setting [5]), the concentration giving a half-maximal response (EC50) came out at 701 nM. Further, at AhR [2] (setting [6]), the inhibition at 0.123 µM turned out to be 99.2%. Further, the IC50 on AhR [3] (setting [7]) was under 10 nM.
As to `CC(C)(O)Cn1cnc2c(-c3cccnc3)nc(-c3ccc(Cl)cc3)cc2c1=O` [Example 38, 6-(4-chlorophenyl)-3-(2-hydroxy-2-methylpropyl)-8-(pyridin-3-yl)pyrido[3,4-d]pyrimidin-4(3H)-one], the EC50 on AhR [1] (setting [5]) was 1670 nM. Moreover, the inhibition at 0.123 µM on AhR [2] (setting [6]) came out at 100%. Moreover, on AhR [3] (setting [10]), the IC50 is under 10 nM.
Consider `CC(CO)n1cnc2c(-c3cccnc3)nc(-c3ccc(N4CCOCC4)cc3)cc2c1=O` (stereo not drawn) [Example 75, 3-(1-hydroxypropan-2-yl)-6-(4-morpholinophenyl)-8-(pyridin-3-yl)pyrido[3,4-d]pyrimidin-4(3H)-one], for which the EC50 at AhR [1] (setting [5]) was over 30000 nM; on AhR [1] (setting [8]) it was over 10000 nM. The inhibition at 0.123 µM on AhR [2] (setting [6]) amounted to 101%. Also, the results for the concentration for half-maximal inhibition (IC50) on AhR [4] (setting [11]) and on AhR [3] (setting [10]) were 10 to 100 nM and under 10 nM, respectively.
As for `O=c1c2cc(-c3ccc(Cl)cc3)nc(-c3cccnc3)c2ncn1[C@H]1CC[C@H](O)CC1` [Example 56, 6-(4-chlorophenyl)-3-((1r,4r)-4-hydroxycyclohexyl)-8-(pyridin-3-yl)pyrido[3,4-d]pyrimidin-4(3H)-one], the values for the concentration for a half-maximal effect (EC50) at AhR [1] (setting [5]) and on AhR [1] (setting [8]) were over 30000 nM and over 10000 nM, respectively. Moreover, the inhibition at 0.123 µM at AhR [2] (setting [6]) was 101%. Moreover, the IC50 at AhR [4] (setting [9]) and on AhR [3] (setting [10]) was under 10 nM each time.
